Measured values published in patent publication US20210370019A1, “Method of Treatment Using Negative Pressure Renal Therapy and Medicament(s)” (Strataca Systems Limited, priority 2020, published 2021).
Where two headings read alike, the source gives them in different places.

What was measured:
[1] = tested on: animal model of hypervolemic tamponade
[2] = tested on: congestion heart failure (HF) model; details: for diuresis / natriuresis: furosemide diuresis, No-HF; for filtration fraction: furosemide infusion
[3] = cited from earlier work

## NS(=O)(=O)c1cc(C(=O)O)c(NCc2ccco2)cc1Cl [furosemide]
[1]; tamponade (CVP approx. 20 mm Hg), continued presence of furosemide, compared to mild congestion state of saline loading
  decrease in urine output: −35%
[1]; tamponade, negative pressure (−30 mm Hg) in combination with furosemide, beyond the use of diuretics alone
  increase in urine output: +67%
[2]; control kidney (no rNPT)
  diuresis: 11.8 ± 3.7 mL/min
  natriuresis: 1.5 ± 0.5 mmol/min
[2]; rNPT kidney (−30 mmHg)
  diuresis: 19.7 ± 4.5 mL/min
  natriuresis: 2.4 ± 0.6 mmol/min
[2]; during rNPT (similar effect between HF and no HF periods)
  filtration fraction: 55.6±24.8%
[2]; without rNPT
  filtration fraction: 49.0±20.8%
[3]; furosemide administration, as reported
  increase in renal interstitial pressure: ~7 mmHg
[3]; known effect of furosemide
  effect on GFR: can reduce GFR
